Laboratory results published in patent publication US7135162B2, “Agent for diagnosing and treating malignant tumors” (Cosmo Research Institute, priority 1997, dated 2006).
Where “and” joins values, the source holds several entries; their conditions need not be identical. Equal entries are not always repeated.

Test system: human ovarian cancer cisplatin-resistant cultured cell A2480CP
Assay: ^13C-NMR of excised cancer cells and femoral muscle after intravenous administration to tumour-bearing nude mice
Settings: for ^13C Area integrated value, Cancer cells: 300 mg/kg, caudal vein, peak areas 90 to 160 ppm, relative to 100 = first animal after 8 hours, two animals
Source text: Nude mice (female BALB Cnu/nu, about 8 mm in cancer diameter) were used after 3 weeks of the transplantation of 2×10^6 cells/animal of human ovarian cancer cisplatin-resistant cultured cell A2480CP to the right-side body subcutaneously. Preparation of ^13C-labeled 5-aminolevulinic acid aqueous solution:
5-Aminolevulinic acid hydrochloride in which the 5-position carbon was replaced with ^13C (Production Example 4) was used. The 5-aminolevulinic acid hydrochloride in which the 5-position carbon was replaced with ^13C was dissolved in distilled water at a ratio of 25 g/L, and the solution was neutralized to pH 7 with sodium hydroxide.
The thus neutralized solution was sterilized by immediately passing through a 0.22 μm filter and administered from the mouse caudal vein at a ratio of 12 μl per g body weight. This dose corresponds to 300 mg administration of 5-aminolevulinic acid hydrochloride per 1 kg body weight. After 2, 4 and 8 hours of the administration, mice were sacrificed and subjected to bloodletting, and then the cancer cells and femoral part were excised and packed in 10 mmφ NMR sample tubes to the same volume to measure ^13C-NMR by super-conductive NMR, JNM-A400 manufactured by JEOL, at an observation frequency of 100.50 MHz using a proton decoupling method.
After the measurement, peak areas of from 90 to 160 ppm were integrated, and relative values were calculated based on the value 100 of the first animal after 8 hours of the administration. The test was carried out using two animals for each condition.

Cl.N[13CH2]C(=O)CCC(=O)O [^13C-labeled 5-aminolevulinic acid, 5-Aminolevulinic acid hydrochloride in which the 5-position carbon was replaced with ^13C] was tested, and the “^13C Area integrated value, Cancer cells” value (2 hours after administration) was 19 and 22, the “^13C Area integrated value, Cancer cells” value (4 hours after administration) was 89 and 73 and the “^13C Area integrated value, Cancer cells” value (8 hours after administration) was 100 and 87. For the same molecule, the “existing frequency of ^13C, cancer cells versus muscle” value (summary of Table 3, 2, 4 and 8 hours after administration) was “higher in the cancer cells than in the muscle”.
